Where two headings read alike, the source gives them in different places.
Key:
[1] = target: T1, eeAChE (AChE from Electrophorus electricus) (Electrophorus electricus, UniProt O42275); assay: biochemical; conditions: for inhibition at 10 µM: at 10 μM inhibitor concentration, mean ± SD, read-out: eeAChE % Inh.; for IC50: AChE from electric eel, mean ± SEM, at least three experiments
T1 construct: purchased Sigma-Aldrich

[2] = target: eqBuChE (BuChE from equine serum) (Equus caballus, UniProt P81908); assay: biochemical; conditions: for inhibition at 10 µM: at 10 μM inhibitor concentration, mean ± SD, read-out: eqBuChE % Inh.
[3] = target: T2, human recombinant BACE-1 (hBACE-1) (Homo sapiens, UniProt P56817); assay: BACE-1 FRET assay (PanVera kit); type: biochemical; conditions: at 50 μM inhibitor concentration; mean ± SD; read-out: hBACE-1 % Inh.
T2 construct: purchased PanVera BACE-1 FRET Assay Kit, bought from Life Technologies Polska Sp. z o.o; host or cells: baculovirus expression

[4] = target: T3, Aβ1–42 peptide aggregation (Homo sapiens, UniProt P05067); assay: Thioflavin T-based fluorometric assay of Aβ aggregation; type: biochemical; conditions: read-out: Aβ-Aggr. % Inh.
T3 construct: Recombinant human HFIP-pretreated Aβ1–42 peptide; purchased Merck Millipore, Darmstadt, Germany

human AChE = tested on: human AChE; design: method as in PMID 25621991; conditions: cited from earlier work
Aβ aggregation = tested on: Aβ aggregation; design: method as in PMID 25621991; conditions: at 10 μM; cited from earlier work
Aβ toxicity = tested on: Aβ toxicity; design: method as in PMID 25621991; conditions: at 1 μM and 3 μM; cited from earlier work
[5] = at 10 μM inhibitor concentration, 1.5 μM Aβ1–42, mean ± SD

Chain of eqBuChE (BuChE from equine serum) (P81908 whole entry): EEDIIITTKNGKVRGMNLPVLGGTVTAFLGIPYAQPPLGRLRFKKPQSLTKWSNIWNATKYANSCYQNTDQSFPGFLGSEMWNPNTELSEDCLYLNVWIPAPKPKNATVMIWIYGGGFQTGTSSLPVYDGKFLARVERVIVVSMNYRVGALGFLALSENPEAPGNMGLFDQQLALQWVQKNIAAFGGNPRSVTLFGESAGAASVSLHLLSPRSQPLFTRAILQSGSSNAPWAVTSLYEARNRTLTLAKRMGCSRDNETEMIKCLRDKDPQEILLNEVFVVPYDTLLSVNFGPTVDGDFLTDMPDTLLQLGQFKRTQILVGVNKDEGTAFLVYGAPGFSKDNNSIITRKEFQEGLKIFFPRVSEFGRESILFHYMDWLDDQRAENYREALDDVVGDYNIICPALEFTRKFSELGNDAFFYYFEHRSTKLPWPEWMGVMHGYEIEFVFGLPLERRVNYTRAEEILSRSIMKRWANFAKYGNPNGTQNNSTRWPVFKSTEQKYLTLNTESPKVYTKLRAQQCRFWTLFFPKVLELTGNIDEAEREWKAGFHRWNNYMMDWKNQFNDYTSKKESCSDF
T3 sequence (P05067 672-713 limits assumed): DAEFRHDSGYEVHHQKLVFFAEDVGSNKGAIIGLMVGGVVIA
T2 sequence (P56817 46-501): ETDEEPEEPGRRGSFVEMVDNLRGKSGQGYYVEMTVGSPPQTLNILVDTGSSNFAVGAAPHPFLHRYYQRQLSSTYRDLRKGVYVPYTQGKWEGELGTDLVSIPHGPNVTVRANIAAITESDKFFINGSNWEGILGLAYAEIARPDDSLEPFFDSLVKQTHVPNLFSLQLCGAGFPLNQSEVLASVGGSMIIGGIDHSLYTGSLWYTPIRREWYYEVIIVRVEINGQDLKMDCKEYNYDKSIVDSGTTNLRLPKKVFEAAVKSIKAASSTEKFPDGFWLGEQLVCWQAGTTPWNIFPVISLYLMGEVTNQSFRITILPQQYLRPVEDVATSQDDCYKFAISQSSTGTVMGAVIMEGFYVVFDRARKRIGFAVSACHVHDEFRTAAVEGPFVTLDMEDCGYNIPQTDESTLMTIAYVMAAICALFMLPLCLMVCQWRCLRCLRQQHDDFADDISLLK
T1 sequence (O42275 24-633): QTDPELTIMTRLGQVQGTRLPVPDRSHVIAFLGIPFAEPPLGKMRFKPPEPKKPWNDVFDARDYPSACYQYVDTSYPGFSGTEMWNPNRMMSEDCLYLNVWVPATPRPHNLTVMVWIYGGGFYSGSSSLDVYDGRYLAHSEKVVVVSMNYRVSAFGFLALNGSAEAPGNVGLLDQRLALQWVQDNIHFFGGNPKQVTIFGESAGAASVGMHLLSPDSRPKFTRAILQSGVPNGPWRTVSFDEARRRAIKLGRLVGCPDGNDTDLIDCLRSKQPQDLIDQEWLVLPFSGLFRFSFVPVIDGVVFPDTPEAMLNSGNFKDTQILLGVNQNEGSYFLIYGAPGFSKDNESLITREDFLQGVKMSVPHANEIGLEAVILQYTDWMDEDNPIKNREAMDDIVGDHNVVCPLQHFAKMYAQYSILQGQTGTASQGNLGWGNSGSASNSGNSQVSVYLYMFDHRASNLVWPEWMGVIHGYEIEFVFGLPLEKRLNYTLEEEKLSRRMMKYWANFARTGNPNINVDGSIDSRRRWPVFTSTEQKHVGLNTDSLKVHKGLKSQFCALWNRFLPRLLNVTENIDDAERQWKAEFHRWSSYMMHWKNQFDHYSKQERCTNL

Question: For `O=C1c2ccccc2C(=O)N1CC(O)CNCc1ccc(Cl)cc1Cl` (centres unmarked) [Compound 8, 2-(3-((2,4-Dichlorobenzyl)amino)-2-hydroxypropyl)isoindoline-1,3-dione], which inhibition at 10 µM [1] is on record?
Answer: < 10%

Question: What about the inhibition at 10 µM [2] of the same compound?
Answer: 21.7%

Question: What about the inhibition at 50 µM [3] of the same compound?
Answer: 37.2%

Question: And the inhibition at 10 µM [4, 5]?
Answer: < 10%

Question: With `O=C1c2ccccc2C(=O)N1CCCCCNCc1ccc(F)cc1` [Compound III, 2-(5-(4-flurobenzylamino)pentyl)isoindoline-1,3-dione] as the compound, how does the IC50 (human AChE) read?
Answer: 268 nM

Question: What about the anti-Aβ aggregation activity (Aβ aggregation) of the same compound?
Answer: 66%

Question: What about the “neuroprotective effect against Aβ toxicity” value (Aβ toxicity) of the same compound?
Answer: neuroprotective effect

Question: For `Oc1ccc(/C=C/c2cc(O)cc(O)c2)cc1` [Resveratrol, reference compound], which inhibition at 10 µM [4, 5] is on record?
Answer: 78.5%

Question: Which results are given for `O=C1c2ccccc2C(=O)N1CCCCC(O)CNCc1ccccc1` (centres unmarked) [Compound 14, 2-(6-(Benzylamino)-5-hydroxyhexyl)isoindoline-1,3-dione]?
Answer: IC50 [1]: 2130 ± 70 nM; inhibition at 10 µM [2]: 36%; inhibition at 50 µM [3]: 42.1%; inhibition at 10 µM [4, 5]: < 10%

Question: Which results are given for `Cc1ccc(CNCC(O)CN2C(=O)c3ccccc3C2=O)cc1` (centres unmarked) [Compound 6, 2-(2-Hydroxy-3-((4-methylbenzyl)amino)propyl)isoindoline-1,3-dione]?
Answer: inhibition at 10 µM [1]: < 10%; inhibition at 10 µM [2]: 11.6%; inhibition at 50 µM [3]: 45%; inhibition at 10 µM [4, 5]: < 10%

Question: Which inhibition at 10 µM [1] does the source give for `O=C1c2ccccc2C(=O)N1CCC(O)CNCc1ccccc1` (centres unmarked) [Compound 9, 2-(4-(Benzylamino)-3-hydroxybutyl)isoindoline-1,3-dione] here?
Answer: < 10%

Question: What about the inhibition at 10 µM [2] of the same compound?
Answer: < 10%

Question: And the inhibition at 50 µM [3]?
Answer: < 10%

Question: What about the inhibition at 10 µM [4, 5] of the same compound?
Answer: < 10%

Question: What does the source list for `O=C1c2ccccc2C(=O)N1CC(O)CNCc1ccccc1C(F)(F)F` (centres unmarked) [Compound 3, 2-(2-Hydroxy-3-((2-(trifluoromethyl)benzyl)amino)propyl)isoindoline-1,3-dione]?
Answer: inhibition at 10 µM [1]: 11.8%; inhibition at 10 µM [2]: < 10%; inhibition at 50 µM [3]: 41.8%; inhibition at 10 µM [4, 5]: < 10%

Question: With `COc1ccc(CNCC(O)CN2C(=O)c3ccccc3C2=O)cc1` (centres unmarked) [Compound 7, 2-(2-Hydroxy-3-((4-methoxybenzyl)amino)propyl)isoindoline-1,3-dione] as the compound, how does the inhibition at 10 µM [1] read?
Answer: < 10%

Question: What about the inhibition at 10 µM [2] of the same compound?
Answer: 19.1%

Question: What about the inhibition at 50 µM [3] of the same compound?
Answer: 35.1%

Question: And the inhibition at 10 µM [4, 5]?
Answer: < 10%

Question: With `COc1ccc(CNCC(O)CCN2C(=O)c3ccccc3C2=O)cc1` (centres unmarked) [Compound 11, 2-(3-Hydroxy-4-((4-methoxybenzyl)amino)butyl)isoindoline-1,3-dione] as the compound, how does the inhibition at 10 µM [1] read?
Answer: < 10%

Question: And the inhibition at 10 µM [2]?
Answer: < 10%

Question: What about the inhibition at 50 µM [3] of the same compound?
Answer: 34.8%

Question: And the inhibition at 10 µM [4, 5]?
Answer: < 10%

Question: For `O=C1c2ccccc2C(=O)N1CC(O)CNCc1cccc(Cl)c1` (centres unmarked) [Compound 4, 2-(3-((3-Chlorobenzyl)amino)-2-hydroxypropyl)isoindoline-1,3-dione], which inhibition at 10 µM [1] is on record?
Answer: < 10%

Question: What about the inhibition at 10 µM [2] of the same compound?
Answer: 24.1%

Question: And the inhibition at 50 µM [3]?
Answer: 34.1%

Question: What about the inhibition at 10 µM [4, 5] of the same compound?
Answer: < 10%

Question: With `COc1ccccc1CNCC(O)CCN1C(=O)c2ccccc2C1=O` (centres unmarked) [Compound 10, 2-(3-Hydroxy-4-((2-methoxybenzyl)amino)butyl)isoindoline-1,3-dione] as the compound, how does the inhibition at 10 µM [1] read?
Answer: 32.7%

Question: What about the inhibition at 10 µM [2] of the same compound?
Answer: 17.8%

Question: What about the inhibition at 50 µM [3] of the same compound?
Answer: 24.4%

Question: And the inhibition at 10 µM [4, 5]?
Answer: < 10%

Question: For `O=C1c2ccccc2C(=O)N1CCCC(O)CNCc1ccccc1` (centres unmarked) [Compound 12, 2-(5-(Benzylamino)-4-hydroxypentyl)isoindoline-1,3-dione], which IC50 [1] is on record?
Answer: 3320 ± 150 nM

Question: What about the inhibition at 10 µM [2] of the same compound?
Answer: 14.1%

Question: What about the inhibition at 50 µM [3] of the same compound?
Answer: 43.7%

Question: What about the inhibition at 10 µM [4, 5] of the same compound?
Answer: 24.9%

Question: Which results are given for `COc1ccccc1CNCC(O)CCCN1C(=O)c2ccccc2C1=O` (centres unmarked) [Compound 13, 2-(4-Hydroxy-5-((2-methoxybenzyl)amino)pentyl)isoindoline-1,3-dione]?
Answer: IC50 [1]: 11100 ± 490 nM; inhibition at 10 µM [2]: 26.2%; inhibition at 50 µM [3]: 37.1%; inhibition at 10 µM [4, 5]: < 10%

Question: Which results are given for `COc1ccccc1CNCC(O)CN1C(=O)c2ccccc2C1=O` (centres unmarked) [Compound 5, 2-(2-Hydroxy-3-((2-methoxybenzyl)amino)propyl)isoindoline-1,3-dione]?
Answer: inhibition at 10 µM [1]: < 10%; IC50 ([2]; BuChE from horse serum, mean ± SEM, at least three experiments): 7860 ± 290 nM; inhibition at 50 µM [3]: 39.2%; inhibition at 10 µM [4, 5]: 19.9%

Question: Which results are given for `O=C1c2ccccc2C(=O)N1CC(O)CNCc1ccccc1F` (centres unmarked) [Compound 2, 2-(3-((2-Fluorobenzyl)amino)-2-hydroxypropyl)isoindoline-1,3-dione]?
Answer: inhibition at 10 µM [1]: 28.1%; inhibition at 10 µM [2]: 19.5%; inhibition at 50 µM [3]: 39.6%; inhibition at 10 µM [4, 5]: 21.1%

Question: For `O=C1c2ccccc2C(=O)N1CC(O)CNCc1ccccc1` (centres unmarked) [Compound 1, 2-(3-(Benzylamino)-2-hydroxypropyl)isoindoline-1,3-dione], which inhibition at 10 µM [1] is on record?
Answer: 11.5%

Question: What about the inhibition at 10 µM [2] of the same compound?
Answer: 14.1%

Question: What about the inhibition at 50 µM [3] of the same compound?
Answer: 37.3%

Question: What about the inhibition at 10 µM [4, 5] of the same compound?
Answer: < 10%

Question: For `COc1ccccc1CNCC(O)CCCCN1C(=O)c2ccccc2C1=O` (centres unmarked) [Compound 15, 2-(5-Hydroxy-6-((2-methoxybenzyl)amino)hexyl)isoindoline-1,3-dione], which IC50 [1] is on record?
Answer: 1950 ± 60 nM

Question: And the inhibition at 10 µM [2]?
Answer: 36%

Question: And the inhibition at 50 µM [3]?
Answer: 15.7%

Question: What about the inhibition at 10 µM [4, 5] of the same compound?
Answer: < 10%

Question: With `COc1cc2c(cc1OC)C(=O)C(CC1CCN(Cc3ccccc3)CC1)C2` (centres unmarked) [Donepezil, reference compound] as the compound, how does the inhibition at 10 µM [4] read?
Answer: 13.8%

Source: publication PMC6017481, “Design, Synthesis, and Biological Evaluation of 2-(Benzylamino-2-Hydroxyalkyl)Isoindoline-1,3-Diones Derivatives as Potential Disease-Modifying Multifunctional Anti-Alzheimer Agents” (Molecules : A Journal of Synthetic Chemistry and Natural …, 2018)
